Laboratory results taken from US20250163057A1, “DCN-1 MODULATING COMPOUNDS AND METHODS OF USE THEREOF” (Cellarity, Inc., priority 2023, published 2025).
Read-outs that look alike come from different tables or passages of the source.

Target: DCN1 (DCUND1) protein PONY domain (Homo sapiens (Human), UniProt Q96GG9)
Test: TR-FRET assay, DCN1 binding with FAM-labeled probe
Procedure: A TR-FRET assay was performed to evaluate the ability of the compounds to bind the DCN-1 protein.
The TR-FRET assay was designed following the Scott et al. protocol (Scott et al., Nat Chem Biol. 2017 August; 13(8): 850-857. Doi:10.1038/nchembio.2386). The recombinant form of the DCN1 (DCUND1) protein PONY domain was produced using an E. coli expression system at Viva Biotech (China). The DCN1 protein was biotinylated (EZ sulfo-NHS-LC-biotin; Thermofisher) for labeling with streptavidin terbium (Tb) cryptate in the reaction. The probe was changed to a non-covalent DCN1 inhibitor labeled with carboxyfluorescein (FAM; Zhou et al., Nat Commun. 2017; 8: 1150. Doi: 10.1038/s41467-017-01243-7). Buffer conditions were modified to enhance protein stability by exchanging Tween20 for TritonX and increasing NaCl to 200 mM. The compounds were screened against 5 nM DCN1 and 20 nM FAM-probe or 0.31 nM DCN1 and 900 nM total probe (100 nM FAM-labeled plus 800 nM unlabeled). The TR-FRET ratio between Tb-DCN1 and the FAM-labeled probe was measured in a 384-well opti-plate (Perkin Elmer) using a plate reader (BMG) at 1, 5, and 24 hrs after treatment with compound (final DMSO concentration of 0.1%).

[1] = 24 hr after treatment with compound, read-out: TR FRET IC50 24 hr
[2] = TR FRET IC50 1 hr (nM), 1 hr after treatment with compound

Chain of DCN1 (DCUND1) protein PONY domain (Q96GG9 60-248): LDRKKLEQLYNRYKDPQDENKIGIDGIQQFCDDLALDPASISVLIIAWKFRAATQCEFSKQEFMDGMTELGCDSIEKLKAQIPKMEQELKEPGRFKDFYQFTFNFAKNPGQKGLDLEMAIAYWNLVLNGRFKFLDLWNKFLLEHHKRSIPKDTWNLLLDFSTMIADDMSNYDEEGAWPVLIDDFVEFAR

| SMILES | IC50 [1] | IC50 [2] |
| --- | --- | --- |
| CCN1C(=O)[C@@H](NC(=O)c2cccc(C(F)(F)F)c2)[C@@H](c2ccc(F)cc2)c2c(CC/C=C/C(=O)NC)nn(-c3ccccc3)c21 (racemic) [Compound I-91] | 200 to 1000 nM | 200 to 1000 nM |
| CCN1C(=O)[C@@H](NC(=O)c2cccc(C(F)(F)F)c2)[C@@H](c2ccc(F)cc2)c2c(NC(=O)C#CCN(C)C)nn(-c3ccccc3)c21 (racemic) [Compound I-93, rac-N-((4R,5R)-3-(4-(dimethylamino)but-2-ynamido)-7-ethyl-4-(4-fluorophenyl)-6-oxo-1-phenyl-4,5,6,7-tetrahydro-1H-pyrazolo[3,4-b]pyridine-5-yl)-3-(trifluoromethyl)benzamide] | ≤ 200 nM | ≤ 200 nM |
| C=C(CN1CC(F)(F)C1)C(=O)NCc1nn(-c2ccccc2)c2c1[C@H](c1ccc(F)cc1)[C@H](NC(=O)c1cccc(C(F)(F)F)c1)C(=O)N2CC (racemic) [Compound I-95] | 200 to 1000 nM | 200 to 1000 nM |
| CCN1C(=O)[C@@H](NC(=O)c2cccc(C(F)(F)F)c2)[C@@H](c2ccc(F)cc2)c2c(CNCC#N)nn(-c3ccccc3)c21 (racemic) [Compound I-96, rac-N-((4R,5R)-3-(((cyanomethyl)amino)methyl)-7-ethyl-4-(4-fluorophenyl)-6-oxo-1-phenyl-4,5,6,7-tetrahydro-1H-pyrazolo[3,4-b]pyridine-5-yl)-3-(trifluoromethyl)benzamide] | 200 to 1000 nM | 200 to 1000 nM |
| CCN1C(=O)[C@@H](NC(=O)c2cccc(C(F)(F)F)c2)[C@@H](C2CC2)c2c(CNC#N)nn(-c3ccccc3)c21 (racemic) [Compound I-98] | ≤ 200 nM | 200 to 1000 nM |
| CCN1C(=O)[C@@H](NC(=O)c2cccc(C(F)(F)F)c2)[C@@H](c2ccc(F)cc2)c2c(C/C=C/C(=O)NCCCN(C)C)nn(-c3ccccc3)c21 (racemic) [Compound I-99] | 200 to 1000 nM | 200 to 1000 nM |
| CCN1C(=O)[C@@H](NC(=O)c2cccc(C(F)(F)F)c2)[C@@H](c2ccc(F)cc2)c2c(CNC(=O)C3(C#N)COC3)nn(-c3ccccc3)c21 (racemic) [Compound I-100, rac-3-cyano-N-(((4R,5R)-7-ethyl-4-(4-fluorophenyl)-6-oxo-1-phenyl-5-(3-(trifluoromethyl)benzamido)-4,5,6,7-tetrahydro-1H-pyrazolo[3,4-b]pyridine-3-yl)methyl)oxetane-3-carboxamide] | 200 to 1000 nM | 200 to 1000 nM |
| C=C(Cc1nn(-c2ccccc2)c2c1[C@H](c1ccc(F)cc1)[C@H](NC(=O)c1cccc(C(F)(F)F)c1)C(=O)N2CC)C(N)=O (racemic) [Compound I-105, rac-N-((4R,5R)-3-(2-carbamoylallyl)-7-ethyl-4-(4-fluorophenyl)-6-oxo-1-phenyl-4,5,6,7-tetrahydro-1H-pyrazolo[3,4-b]pyridin-5-yl)-3-(trifluoromethyl)benzamide] | 200 to 1000 nM | 200 to 1000 nM |
| CCN1C(=O)[C@@H](NC(=O)c2cccc(C(F)(F)F)c2)[C@@H](c2ccc(F)cc2)c2c(NC(=O)C(F)Cl)nn(-c3ccccc3)c21 (mixture of isomers) [Compound I-120] | 200 to 1000 nM | 200 to 1000 nM |
| CCN1C(=O)[C@@H](NC(=O)c2cccc(C(F)(F)F)c2)[C@@H](c2ccc(F)cc2)c2c(CC/C=C\C(=O)O)nn(-c3ccccc3)c21 (racemic) [Compound I-126, rac-(Z)-5-((4R,5R)-7-ethyl-4-(4-fluorophenyl)-6-oxo-1-phenyl-5-(3-(trifluoromethyl)benzamido)-4,5,6,7-tetrahydro-1H-pyrazolo[3,4-b]pyridin-3-yl)pent-2-enoic acid] | 200 to 1000 nM | 200 to 1000 nM |
| CCN1C(=O)[C@@H](NC(=O)c2cccc(C(F)(F)F)c2)[C@@H](c2ccc(F)cc2)c2c(CC/C=C/C(=O)OC)nn(-c3ccccc3)c21 (racemic) [Compound I-128, rac-methyl (E)-5-((4R,5R)-7-ethyl-4-(4-fluorophenyl)-6-oxo-1-phenyl-5-(3-(trifluoromethyl)benzamido)-4,5,6,7-tetrahydro-1H-pyrazolo[3,4-b]pyridin-3-yl)pent-2-enoate] | 200 to 1000 nM | 1000 to 3000 nM |
| CCN1C(=O)[C@@H](NC(=O)c2cccc(C(F)(F)F)c2)[C@@H](c2ccc(F)cc2)c2c(CC/C=C/C(=O)O)nn(-c3ccccc3)c21 (racemic) [Compound I-134, rac-(E)-5-((4R,5R)-7-ethyl-4-(4-fluorophenyl)-6-oxo-1-phenyl-5-(3-(trifluoromethyl)benzamido)-4,5,6,7-tetrahydro-1H-pyrazolo[3,4-b]pyridin-3-yl)pent-2-enoic acid] | 200 to 1000 nM | 200 to 1000 nM |
| CCN1C(=O)[C@@H](NC(=O)c2cccc(C(F)(F)F)c2)[C@@H](c2ccc(F)cc2)c2c(CC/C=C\C(N)=O)nn(-c3ccccc3)c21 (racemic) [Compound I-142] | 200 to 1000 nM | 200 to 1000 nM |
| CCN1C(=O)[C@@H](NC(=O)c2cccc(C(F)(F)F)c2)[C@@H](c2ccc(F)cc2)c2c(C(C)(C)NC#N)nn(-c3ccccc3)c21 (racemic) [Compound I-144, rac-N-((4R,5R)-3-(2-cyanamidopropan-2-yl)-7-ethyl-4-(4-fluorophenyl)-6-oxo-1-phenyl-4,5,6,7-tetrahydro-1H-pyrazolo[3,4-b]pyridin-5-yl)-3-(trifluoromethyl)benzamide] | 200 to 1000 nM | 1000 to 3000 nM |
| CCN1C(=O)[C@@H](NC(=O)c2cccc(C(F)(F)F)c2)[C@@H](c2ccc(F)cc2)c2c(CN(C)C(=O)C(F)Cl)nn(-c3ccccc3)c21 (mixture of isomers) [Compound I-145] | 200 to 1000 nM | 200 to 1000 nM |
| C=C(C(=O)OC(C)(C)C)[C@@H](O)c1nn(-c2ccccc2)c2c1[C@H](c1ccc(F)cc1)[C@H](NC(=O)c1cccc(C(F)(F)F)c1)C(=O)N2CC (racemic) [Compound I-146, rac-tert-butyl 2-(((4R,5R)-7-ethyl-4-(4-fluorophenyl)-6-oxo-1-phenyl-5-(3-(trifluoromethyl)benzamido)-4,5,6,7-tetrahydro-1H-pyrazolo[3,4-b]pyridin-3-yl)(hydroxy)methyl)acrylate] | 200 to 1000 nM | 1000 to 3000 nM |
| CCN1C(=O)[C@@H](NC(=O)c2cccc(C(F)(F)F)c2)[C@@H](c2ccc(F)cc2)c2c(CNC(=O)/C=C/C(=O)NCCN(C)C)nn(-c3ccccc3)c21 (racemic) [Compound I-154, rac-N1-(2-(dimethylamino)ethyl)-N4-(((4R,5R)-7-ethyl-4-(4-fluorophenyl)-6-oxo-1-phenyl-5-(3-(trifluoromethyl)benzamido)-4,5,6,7-tetrahydro-1H-pyrazolo[3,4-b]pyridine-3-yl)methyl)fumaramide] | ≤ 200 nM | 200 to 1000 nM |
| CCN1C(=O)[C@@H](NC(=O)c2cccc(C(F)(F)F)c2)[C@@H](c2ccc(F)cc2)c2c(CNC(=O)/C(C)=C/C(=O)OC)nn(-c3ccccc3)c21 (racemic) [Compound I-155] | 200 to 1000 nM | 1000 to 3000 nM |
| C/C=C(\C)S(=O)(=O)NCc1nn(-c2ccccc2)c2c1[C@H](c1ccc(F)cc1)[C@H](NC(=O)c1cccc(C(F)(F)F)c1)C(=O)N2CC (racemic) [Compound I-159] | 200 to 1000 nM | 1000 to 3000 nM |
| CCN1C(=O)[C@H](NC(=O)c2cccc(C(F)(F)F)c2)[C@H](c2ccc(F)cc2)c2c([C@@H](C)N(C)C#N)nn(-c3ccccc3)c21 (relative stereo) [Compound I-79, N-((4R*,5R*)-7-ethyl-4-(4-fluorophenyl)-3-((R)-1-(N-methylcyanamido)ethyl)-6-oxo-1-phenyl-4,5,6,7-tetrahydro-1H-pyrazolo[3,4-b]pyridine-5-yl)-3-(trifluoromethyl)benzamide] | 1000 to 3000 nM | 1000 to 3000 nM |
| CCN1C(=O)[C@@H](NC(=O)c2cccc(C(F)(F)F)c2)[C@@H](c2ccc(F)cc2)c2c(CNC(=O)[C@H](C)C#N)nn(-c3ccccc3)c21 (relative stereo) [Compound I-85, N-((4RS,5RS)-3-(((S*)-2-cyanopropanamido)methyl)-7-ethyl-4-(4-fluorophenyl)-6-oxo-1-phenyl-4,5,6,7-tetrahydro-1H-pyrazolo[3,4-b]pyridin-5-yl)-3-(trifluoromethyl)benzamide] | 1000 to 3000 nM | 1000 to 3000 nM |
| CCN1C(=O)[C@@H](NC(=O)c2cccc(C(F)(F)F)c2)[C@@H](c2ccc(F)cc2)c2c(CNC(=O)[C@@H](C)C#N)nn(-c3ccccc3)c21 (relative stereo) [Compound I-158, N-((4RS,5RS)-3-(((R*)-2-cyanopropanamido)methyl)-7-ethyl-4-(4-fluorophenyl)-6-oxo-1-phenyl-4,5,6,7-tetrahydro-1H-pyrazolo[3,4-b]pyridin-5-yl)-3-(trifluoromethyl)benzamide] | 200 to 1000 nM | 200 to 1000 nM |
| CCN1C(=O)[C@H](NC(=O)c2cccc(C(F)(F)F)c2)[C@@H](c2ccc(F)cc2)c2c(CN(C)C#N)nn(-c3ccccc3)c21 (single isomer, unassigned) [Compound I-82] | 1000 to 3000 nM | 1000 to 3000 nM |
| CCN1C(=O)[C@@H](NC(=O)c2cccc(C(F)(F)F)c2)[C@H](c2ccc(F)cc2)c2c(CN(C)C#N)nn(-c3ccccc3)c21 (single isomer, unassigned) [Compound I-133] | 200 to 1000 nM | 200 to 1000 nM |
| CCN1C(=O)[C@@H](NC(=O)c2cccc(C(F)(F)F)c2)[C@@H](c2ccc(F)cc2)c2c([C@@H](C)N(C)C#N)nn(-c3ccccc3)c21 [Compound I-44] | ≤ 200 nM | 200 to 1000 nM |
